ChEMBL document CHEMBL3045645, “Organophosphorus derivatives containing isatin-3-hydrazones as chemotherapeutants against fungal pathogens of sugarcane” (2008)
≈ marks a conversion by molar mass, not a printed value.

Tests used:
Format in all cases: functional
Curvularia pallescens [1] = assay: Ratio of thiophanate MIC to compound MIC for Cochliobolus pallescens after 7 days by food poison technique
Curvularia pallescens [2] = assay: Ratio of mancozeb MIC to compound MIC for Cochliobolus pallescens after 7 days by food poison technique
Curvularia pallescens [3] = assay: Ratio of copper oxychloride MIC to compound MIC for Cochliobolus pallescens after 7 days by food poison technique
Curvularia pallescens [4] = assay: Ratio of carbendazim MIC to compound MIC for Cochliobolus pallescens after 7 days by food poison technique
Fusarium oxysporum [5] = assay: Ratio of thiophanate MIC to compound MIC for Fusarium oxysporum after 7 days by food poison technique
Fusarium oxysporum [6] = assay: Ratio of mancozeb MIC to compound MIC for Fusarium oxysporum after 7 days by food poison technique
Fusarium oxysporum [7] = assay: Ratio of copper oxychloride MIC to compound MIC for Fusarium oxysporum after 7 days by food poison technique
Fusarium oxysporum [8] = assay: Ratio of carbendazim MIC to compound MIC for Fusarium oxysporum after 7 days by food poison technique
Colletotrichum falcatum [9] = assay: Ratio of thiophanate MIC to compound MIC for Glomerella tucumanensis after 7 days by food poison technique
Colletotrichum falcatum [10] = assay: Ratio of mancozeb MIC to compound MIC for Glomerella tucumanensis after 7 days by food poison technique
Colletotrichum falcatum [11] = assay: Ratio of copper oxychloride MIC to compound MIC for Glomerella tucumanensis after 7 days by food poison technique
Colletotrichum falcatum [12] = assay: Ratio of carbendazim MIC to compound MIC for Glomerella tucumanensis after 7 days by food poison technique
Curvularia pallescens [13] = assay: Antifungal activity against Cochliobolus pallescens assessed as mycelial growth inhibition at 28 +/-2 degC after 7 days by food poison technique; details: 168 h
Fusarium oxysporum [14] = assay: Antifungal activity against Fusarium oxysporum assessed as mycelial growth inhibition at 28 +/-2 degC after 7 days by food poison technique; details: 168 h
Colletotrichum falcatum [15] = assay: Antifungal activity against Glomerella tucumanensis assessed as mycelial growth inhibition at 28 +/-2 degC after 7 days by food poison technique; details: 168 h
Curvularia pallescens [16] = assay: Antifungal activity against Cochliobolus pallescens assessed as mycelial growth inhibition at 1000 ppm at 28 +/-2 degC after 7 days by food poison technique; details: 168 h, read-out: GI
Curvularia pallescens [17] = assay: Antifungal activity against Cochliobolus pallescens assessed as mycelial growth inhibition at 100 ppm at 28 +/-2 degC after 7 days by food poison technique; details: 168 h, read-out: GI
Curvularia pallescens [18] = assay: Antifungal activity against Cochliobolus pallescens assessed as mycelial growth inhibition at 10 ppm at 28 +/-2 degC after 7 days by food poison technique; details: 168 h, read-out: GI
Fusarium oxysporum [19] = assay: Antifungal activity against Fusarium oxysporum assessed as mycelial growth inhibition at 1000 ppm at 28 +/-2 degC after 7 days by food poison technique; details: 168 h, read-out: GI
Fusarium oxysporum [20] = assay: Antifungal activity against Fusarium oxysporum assessed as mycelial growth inhibition at 100 ppm at 28 +/-2 degC after 7 days by food poison technique; details: 168 h, read-out: GI
Fusarium oxysporum [21] = assay: Antifungal activity against Fusarium oxysporum assessed as mycelial growth inhibition at 10 ppm at 28 +/-2 degC after 7 days by food poison technique; details: 168 h, read-out: GI
Colletotrichum falcatum [22] = assay: Antifungal activity against Glomerella tucumanensis assessed as mycelial growth inhibition at 1000 ppm at 28 +/-2 degC after 7 days by food poison technique; details: 168 h, read-out: GI
Colletotrichum falcatum [23] = assay: Antifungal activity against Glomerella tucumanensis assessed as mycelial growth inhibition at 100 ppm at 28 +/-2 degC after 7 days by food poison technique; details: 168 h, read-out: GI
Colletotrichum falcatum [24] = assay: Antifungal activity against Glomerella tucumanensis assessed as mycelial growth inhibition at 10 ppm at 28 +/-2 degC after 7 days by food poison technique; details: 168 h, read-out: GI

SMILES | inhibition of growth at 1000 ppm (Curvularia pallescens [16]) [%] | inhibition of growth at 100 ppm (Curvularia pallescens [17]) [%] | inhibition of growth at 10 ppm (Curvularia pallescens [18]) [%] | inhibition of growth at 1000 ppm (Fusarium oxysporum [19]) [%] | inhibition of growth at 100 ppm (Fusarium oxysporum [20]) [%] | inhibition of growth at 10 ppm (Fusarium oxysporum [21]) [%] | inhibition of growth at 1000 ppm (Colletotrichum falcatum [22]) [%] | inhibition of growth at 100 ppm (Colletotrichum falcatum [23]) [%] | inhibition of growth at 10 ppm (Colletotrichum falcatum [24]) [%] | other results
CCOP(=S)(OCC)O/C(COc1ccc(OP(=S)(OCC)OCC)cc1)=N\N=C1/C(=O)Nc2ccccc21 | 100 | 80.5 | 68.6 | 100 | 82.6 | 70.2 | 100 | 86.2 | 75.1 | Ratio (Curvularia pallescens [1]): 2; Ratio (Curvularia pallescens [2]): 2; Ratio (Curvularia pallescens [3]): 2; Ratio (Curvularia pallescens [4]): 2; Ratio (Fusarium oxysporum [5]): 2; Ratio (Fusarium oxysporum [6]): 2; Ratio (Fusarium oxysporum [7]): 2; Ratio (Fusarium oxysporum [8]): 2; Ratio (Colletotrichum falcatum [9]): 2; Ratio (Colletotrichum falcatum [10]): 2; Ratio (Colletotrichum falcatum [11]): 2; Ratio (Colletotrichum falcatum [12]): 2; MIC (Curvularia pallescens [13]): 1000 µg/mL (≈ 1.62 mM); MIC (Fusarium oxysporum [14]): 1000 µg/mL (≈ 1.62 mM); MIC (Colletotrichum falcatum [15]): 1000 µg/mL (≈ 1.62 mM)
CCOP(=S)(OCC)O/C(COc1ccc([N+](=O)[O-])cc1)=N\N=C1/C(=O)Nc2ccccc21 | 65.6 | 52.8 | 40.6 | 67.8 | 52.6 | 44.6 | 68.4 | 56.2 | 48.2 | –
CCOP(=S)(OCC)O/C(=N\N=C1/C(=O)Nc2ccccc21)c1ccccc1P(=S)(OCC)OCC | 80.5 | 64.2 | 54.2 | 82.8 | 66.5 | 55.2 | 86.6 | 67.2 | 57.6 | –
CCOP(=S)(OCC)O/C(COc1ccccc1P(=S)(OCC)OCC)=N\N=C1/C(=O)Nc2ccccc21 | 93.8 | 79.9 | 72.8 | 92.8 | 80 | 71.6 | 95.6 | 81.2 | 72.5 | –
CCOP(=O)(OCC)O/C(=N\N=C1/C(=O)Nc2ccccc21)c1ccccc1 | 59.8 | 49.2 | 40.4 | 61.8 | 50.4 | 41.2 | 60.8 | 49.4 | 40.3 | –
CCOP(=O)(OCC)O/C(COc1ccccc1)=N\N=C1/C(=O)Nc2ccccc21 | 68.8 | 58.2 | 50.1 | 69.6 | 59.2 | 50 | 70.2 | 61.6 | 51.2 | –
CCOP(=S)(OCC)O/C(=N\N=C1/C(=O)Nc2ccccc21)c1ccc(Cl)cc1 | 85.8 | 71.6 | 61.6 | 85.8 | 78.2 | 68.6 | 88.6 | 72.4 | 60.5 | –
CCOP(=O)(OCC)O/C(COc1ccc([N+](=O)[O-])cc1)=N\N=C1/C(=O)Nc2ccccc21 | 55.6 | 42.8 | 34 | 61.5 | 45.8 | 37.2 | 60.2 | 48.6 | 38.6 | –
COC(=O)NC(=S)Nc1ccccc1NC(=S)NC(=O)OC [THIOPHANATE METHYL] | – | – | – | – | – | – | – | – | – | MIC (Curvularia pallescens [13]): 4000 µg/mL (≈ 11.7 mM); MIC (Fusarium oxysporum [14]): 4000 µg/mL (≈ 11.7 mM); MIC (Colletotrichum falcatum [15]): 4000 µg/mL (≈ 11.7 mM)
CCOP(=S)(OCC)O/C(=N\N=C1/C(=O)Nc2ccccc21)c1ccc([N+](=O)[O-])cc1 | 57.2 | 45.6 | 36.2 | 58.2 | 47.2 | 40 | 58.2 | 46.2 | 39.8 | –
CCOP(=S)(OCC)O/C(=N\N=C1/C(=O)Nc2ccccc21)c1ccc(OP(=S)(OCC)OCC)cc1 | 81.4 | 66.2 | 56 | 82.4 | 68.2 | 57.1 | 87 | 68.2 | 58.2 | –
COC(=O)Nc1nc2ccccc2[nH]1 [CARBENDAZIM] | – | – | – | – | – | – | – | – | – | MIC (Curvularia pallescens [13]): 4000 µg/mL (≈ 20.9 mM); MIC (Fusarium oxysporum [14]): 3000 µg/mL (≈ 15.7 mM); MIC (Colletotrichum falcatum [15]): 4000 µg/mL (≈ 20.9 mM)
CCOP(=O)(OCC)O/C(=N\N=C1/C(=O)Nc2ccccc21)c1ccccc1P(=O)(OCC)OCC | 65.6 | 56.7 | 47.7 | 66.5 | 56.2 | 49.8 | 68.8 | 59.9 | 51.5 | –
CCOP(=S)(OCC)O/C(COc1ccccc1)=N\N=C1/C(=O)Nc2ccccc21 | 74.2 | 62.7 | 52.6 | 76.8 | 69.1 | 54 | 75.2 | 67 | 56.2 | –
CCOP(=O)(OCC)O/C(=N\N=C1/C(=O)Nc2ccccc21)c1ccc([N+](=O)[O-])cc1 | 51.8 | 38.6 | 26.8 | 56.2 | 39.6 | 29.4 | 54.2 | 40.1 | 30.2 | –
CCOP(=O)(OCC)O/C(=N\N=C1/C(=O)Nc2ccccc21)c1ccc(OP(=O)(OCC)OCC)cc1 | 67.8 | 51.7 | 51.8 | 71.5 | 58 | 52.6 | 69.2 | 62.4 | 52.3 | –
CCOP(=S)(OCC)O/C(=N\N=C1/C(=O)Nc2ccccc21)c1ccccc1 | 73.5 | 65.8 | 55.7 | 74.2 | 69.2 | 55.2 | 70.8 | 65.1 | 58.2 | –
CCOP(=O)(OCC)O/C(COc1ccc(OP(=O)(OCC)OCC)cc1)=N\N=C1/C(=O)Nc2ccccc21 | 76.4 | 70 | 62.8 | 78.6 | 69.2 | 60.2 | 80.6 | 70.2 | 61.5 | –
CCOP(=O)(OCC)O/C(COc1ccccc1P(=O)(OCC)OCC)=N\N=C1/C(=O)Nc2ccccc21 | 71.2 | 64.6 | 57.2 | 74.2 | 64 | 58.6 | 78.2 | 67.4 | 60.2 | –
CCOP(=O)(OCC)O/C(COc1ccc(Cl)cc1)=N\N=C1/C(=O)Nc2ccccc21 | 82.6 | 71.8 | 60.9 | 85.6 | 74.2 | 61.8 | 80.2 | 71.6 | 64.8 | –
CCOP(=O)(OCC)O/C(=N\N=C1/C(=O)Nc2ccccc21)c1ccc(Cl)cc1 | 71.2 | 62.4 | 51.6 | 72.6 | 67.8 | 54.2 | 69.6 | 64.2 | 56.8 | –
